Measurements reported in patent US20230278972A1, “SUBSTITUTED HALOALKYL SULFONANILIDE HERBICIDES” (FMC Corporation, priority 2020, published 2023).

Assays:
Assay type in all cases: in vivo
[1] = tested on: wheat (Triticum aestivum); test: Test A postemergence, wheat; settings: Postemergence; for Wheat plant response rating: 500 g ai/ha, visual injury vs untreated controls after approx. 10 days
Outline: (§1)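 Postemergence ratings come from foliar sprays onto one- to two-leaf plants of 2 to 10 cm grown in loam/sand; preemergence ratings come from a directed spray onto the soil of newly seeded pots. Formulation was a surfactant-containing non-phytotoxic solvent blend.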

[2] = tested on: Ryegrass, Italian (Italian ryegrass, Lolium multiflorum); test: Test A postemergence, Ryegrass, Italian; settings: Postemergence; for Ryegrass, Italian plant response rating: 500 g ai/ha, visual injury vs untreated controls after approx. 10 days
Outline: (§2)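 After sowing into a sand-amended loam, pots for the preemergence test were treated by spraying directly onto soil. In parallel, seedlings at the one- to two-leaf stage and 2 to 10 cm tall were treated postemergence with the identical surfactant-containing formulation.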

[3] = tested on: Ryegrass, Italian (Italian ryegrass, Lolium multiflorum); test: Test A preemergence, Ryegrass, Italian; settings: Preemergence; for Plant response rating, Ryegrass, Italian: 0 to 100 scale (0 no effect, 100 complete control)
Outline: as §2

[4] = tested on: barnyardgrass (Echinochloa crus-galli); test: Test A postemergence, barnyardgrass; settings: Postemergence, 0 to 100 scale (0 no effect, 100 complete control); for Barnyardgrass plant response rating: 500 g ai/ha, visual injury vs untreated controls after approx. 10 days
Outline: as §1

[5] = tested on: Foxtail, Giant (giant foxtail, Setaria faberi); test: Test A preemergence, Foxtail, Giant; settings: Preemergence; for Plant response rating, Foxtail, Giant: 0 to 100 scale (0 no effect, 100 complete control)
Outline: as §2

corn (Zea mays) = test: Test A postemergence, corn; settings: Postemergence; for Corn plant response rating: 500 g ai/ha, visual injury vs untreated controls after approx. 10 days
Outline: as §2

[6] = tested on: Foxtail, Giant (giant foxtail, Setaria faberi); test: Test A postemergence, Foxtail, Giant; settings: Postemergence; for Foxtail, Giant plant response rating: 500 g ai/ha, visual injury vs untreated controls after approx. 10 days
Outline: as §2

[7] = tested on: pigweed (Amaranthus retroflexus); test: Test A postemergence, pigweed; settings: Postemergence; for Pigweed plant response rating: 500 g ai/ha, visual injury vs untreated controls after approx. 10 days
Outline: as §2

[8] = tested on: pigweed (Amaranthus retroflexus); test: Test A preemergence, pigweed; settings: for Plant response rating, Pigweed: 0 to 100 scale (0 no effect, 100 complete control)
Outline: as §1

[9] = tested on: blackgrass (Alopecurus myosuroides); test: Test A postemergence, blackgrass; settings: Postemergence, 0 to 100 scale (0 no effect, 100 complete control); for Blackgrass plant response rating: 500 g ai/ha, visual injury vs untreated controls after approx. 10 days
Outline: as §2

kochia (Bassia scoparia) [10] = test: Test A preemergence, kochia; settings: Preemergence; for Plant response rating, Kochia: 0 to 100 scale (0 no effect, 100 complete control)
Outline: as §2

[11] = tested on: barnyardgrass (Echinochloa crus-galli); test: Test A preemergence, barnyardgrass; settings: Preemergence; for Plant response rating, Barnyardgrass: 0 to 100 scale (0 no effect, 100 complete control)
Outline: as §2

kochia (Bassia scoparia) [12] = test: Test A postemergence, kochia; settings: Postemergence; for Kochia plant response rating: 500 g ai/ha, visual injury vs untreated controls after approx. 10 days
Outline: as §2

[13] = tested on: ragweed (common ragweed, Ambrosia artemisiifolia); test: Test A preemergence, ragweed; settings: Preemergence; for Plant response rating, Ragweed: 0 to 100 scale (0 no effect, 100 complete control)
Outline: as §2

[14] = tested on: galium (catchweed bedstraw, Galium aparine); test: Test A postemergence, galium; settings: Postemergence; for Galium plant response rating: 500 g ai/ha, visual injury vs untreated controls after approx. 10 days
Outline: as §1

[15] = tested on: ragweed (common ragweed, Ambrosia artemisiifolia); test: Test A postemergence, ragweed; settings: Postemergence; for Ragweed plant response rating: 500 g ai/ha, visual injury vs untreated controls after approx. 10 days
Outline: as §2

[16] = 125 g ai/ha, 0 to 100 scale (0 no effect, 100 complete control)
[17] = 0 to 100 scale (0 no effect, 100 complete control)
[18] = 125 g ai/ha, visual injury, approx. 10 days
[19] = 31 g ai/ha, visual injury on 0 to 100 scale (0 no effect, 100 complete control), approx. 10 days
[20] = 125 g ai/ha, visual injury approx. 10 days, 0 to 100 scale (0 no effect, 100 complete control)
[21] = 31 g ai/ha, visual injury, approx. 10 days
[22] = 125 g ai/ha, visual injury on 0 to 100 scale (0 no effect, 100 complete control), approximately 10 days
[23] = 125 g ai/ha, visual injury approx. 10 days
[24] = 1000 g ai/ha, visual injury, 0 to 100 scale (0 no effect, 100 complete control), approx. 10 days
[25] = 1000 g ai/ha, visual injury, approx. 10 days

Cc1cc(Cl)c(NS(=O)(=O)C(F)(F)F)cc1C1=NOC(C)(C)C1 [Compound 203]
Plant response rating, Wheat [1, 16]: 40 | Wheat plant response rating [1, 17]: 70 | Plant response rating, Ryegrass, Italian [2, 16]: 0 | Ryegrass, Italian plant response rating [2, 17]: 60 | Plant response rating, Ryegrass, Italian [3, 18]: 50 | Plant response rating, Ryegrass, Italian ([3]; 500 g ai/ha): 100 | Plant response rating, Barnyardgrass ([4]; 125 g ai/ha): 60 | Barnyardgrass plant response rating [4]: 80 | Plant response rating, Foxtail, Giant [5, 18]: 30 | Plant response rating, Foxtail, Giant ([5]; 500 g ai/ha): 100 | Plant response rating, Corn (corn (Zea mays); [16]): 10 | Corn plant response rating (corn (Zea mays); [17]): 60 | Plant response rating, Foxtail, Giant [6, 16]: 0 | Foxtail, Giant plant response rating [6, 17]: 50 | Plant response rating, Pigweed [7, 16]: 20 | Pigweed plant response rating [7, 17]: 60 | Plant response rating, Pigweed [8, 18]: 60 | Plant response rating, Pigweed ([8]; 500 g ai/ha): 100 | Plant response rating, Blackgrass ([9]; 125 g ai/ha): 20 | Blackgrass plant response rating [9]: 30 | Plant response rating, Kochia (kochia (Bassia scoparia) [10]; [18]): 60 | Plant response rating, Kochia (kochia (Bassia scoparia) [10]; 500 g ai/ha): 90 | Plant response rating, Barnyardgrass [11, 18]: 90 | Plant response rating, Barnyardgrass ([11]; 500 g ai/ha): 90 | Plant response rating, Kochia (kochia (Bassia scoparia) [12]; [16]): 40 | Kochia plant response rating (kochia (Bassia scoparia) [12]; [17]): 80 | Plant response rating, Ragweed [13, 18]: 80 | Plant response rating, Ragweed ([13]; 500 g ai/ha): 90 | Plant response rating, Galium [14, 16]: 80 | Galium plant response rating [14, 17]: 90 | Plant response rating, Ragweed [15, 16]: 70 | Ragweed plant response rating [15, 17]: 90

Cc1cc(F)c(C(=O)N2CCCCC2)cc1NS(=O)(=O)C(F)(F)F [Compound 211]
Plant response rating, Wheat [1, 16]: 0 | Wheat plant response rating [1, 17]: 0 | Plant response rating, Ryegrass, Italian [2, 16]: 40 | Ryegrass, Italian plant response rating [2, 17]: 30 | Plant response rating, Ryegrass, Italian [3, 18]: 50 | Plant response rating, Ryegrass, Italian ([3]; 500 g ai/ha): 70 | Plant response rating, Barnyardgrass ([4]; 125 g ai/ha): 0 | Barnyardgrass plant response rating [4]: 30 | Plant response rating, Foxtail, Giant [5, 18]: 60 | Plant response rating, Foxtail, Giant ([5]; 500 g ai/ha): 90 | Plant response rating, Corn (corn (Zea mays); [16]): 0 | Corn plant response rating (corn (Zea mays); [17]): 0 | Plant response rating, Foxtail, Giant [6, 16]: 0 | Foxtail, Giant plant response rating [6, 17]: 50 | Plant response rating, Pigweed [7, 16]: 40 | Pigweed plant response rating [7, 17]: 60 | Plant response rating, Pigweed [8, 18]: 20 | Plant response rating, Pigweed ([8]; 500 g ai/ha): 90 | Plant response rating, Blackgrass ([9]; 125 g ai/ha): 0 | Blackgrass plant response rating [9]: 0 | Plant response rating, Kochia (kochia (Bassia scoparia) [10]; [18]): 80 | Plant response rating, Kochia (kochia (Bassia scoparia) [10]; 500 g ai/ha): 90 | Plant response rating, Barnyardgrass [11, 18]: 60 | Plant response rating, Barnyardgrass ([11]; 500 g ai/ha): 90 | Plant response rating, Kochia (kochia (Bassia scoparia) [12]; [16]): 10 | Kochia plant response rating (kochia (Bassia scoparia) [12]; [17]): 50 | Plant response rating, Ragweed [13, 18]: 30 | Plant response rating, Ragweed ([13]; 500 g ai/ha): 80 | Plant response rating, Galium [14, 16]: 60 | Galium plant response rating [14, 17]: 70 | Plant response rating, Ragweed [15, 16]: 30 | Ragweed plant response rating [15, 17]: 60

Cc1cc(C)c(C(=O)N2COC(C)(C)C2)cc1NS(=O)(=O)C(F)(F)F [Compound 112]
Plant response rating, Wheat [1, 19]: 0 | Plant response rating, Wheat [1, 20]: 40 | Plant response rating, Ryegrass, Italian [2, 19]: 0 | Plant response rating, Ryegrass, Italian [2, 20]: 60 | Plant response rating, Ryegrass, Italian [3, 21]: 0 | Ryegrass, Italian plant response rating [3, 22]: 30 | Plant response rating, Barnyardgrass ([4]; 31 g ai/ha): 40 | Plant response rating, Barnyardgrass [4, 23]: 70 | Foxtail, Giant plant response rating [5, 22]: 50 | Plant response rating, Corn (corn (Zea mays); [19]): 0 | Plant response rating, Corn (corn (Zea mays); [20]): 20 | Plant response rating, Foxtail, Giant [6, 19]: 10 | Plant response rating, Foxtail, Giant [6, 20]: 50 | Plant response rating, Pigweed [7, 19]: 50 | Plant response rating, Pigweed [7, 20]: 60 | Plant response rating, Pigweed [8, 21]: 50 | Pigweed plant response rating [8, 22]: 100 | Plant response rating, Blackgrass ([9]; 31 g ai/ha): 0 | Plant response rating, Blackgrass [9, 23]: 30 | Plant response rating, Kochia (kochia (Bassia scoparia) [10]; [21]): 10 | Kochia plant response rating (kochia (Bassia scoparia) [10]; [22]): 60 | Plant response rating, Barnyardgrass [11, 21]: 20 | Barnyardgrass plant response rating [11, 22]: 30 | Plant response rating, Kochia (kochia (Bassia scoparia) [12]; [19]): 20 | Plant response rating, Kochia (kochia (Bassia scoparia) [12]; [20]): 30 | Plant response rating, Ragweed [13, 21]: 30 | Ragweed plant response rating [13, 22]: 90 | Plant response rating, Galium [14, 19]: 90 | Plant response rating, Galium [14, 20]: 90 | Plant response rating, Ragweed [15, 19]: 80 | Plant response rating, Ragweed [15, 20]: 90

Cc1cc(C)c(C(=O)N2CCC(F)CC2)cc1NS(=O)(=O)C(F)(F)F [Compound 8]
Plant response rating, Wheat [1, 24]: 40 | Plant response rating, Ryegrass, Italian [2, 24]: 80 | Plant response rating, Ryegrass, Italian ([3]; 1000 g ai/ha): 100 | Plant response rating, Barnyardgrass [4, 25]: 80 | Plant response rating, Foxtail, Giant ([5]; 1000 g ai/ha): 100 | Plant response rating, Corn (corn (Zea mays); [24]): 30 | Plant response rating, Foxtail, Giant [6, 24]: 90 | Plant response rating, Pigweed [7, 24]: 80 | Plant response rating, Pigweed ([8]; 1000 g ai/ha): 100 | Plant response rating, Blackgrass [9, 25]: 70 | Plant response rating, Kochia (kochia (Bassia scoparia) [10]; 1000 g ai/ha): 100 | Plant response rating, Barnyardgrass ([11]; 1000 g ai/ha): 100 | Plant response rating, Kochia (kochia (Bassia scoparia) [12]; [24]): 80 | Plant response rating, Ragweed ([13]; 1000 g ai/ha): 90 | Plant response rating, Galium [14, 24]: 20 | Plant response rating, Ragweed [15, 24]: 90
